Test results from PubChem BioAssay AID248 (DTP/NCI, 2004).
“And” between values parts separate entries of the source, which are not always exact repeats. Equal values may be shown once. Toxic doses and inconclusive results are not listed. Cut-off read from the data, not from the text of the source: active = T/C of 150% or more; inactive = T/C below 125%.

Tested on: L1210 leukemia ip in BDF1 mice, survival T/C
Assay: NCI In Vivo Anticancer Drug Screen. Data for tumor model L1210 Leukemia (intraperitoneal) in B6D2F1 (BDF1) mice
Conditions: endpoint: mean survival time, higher = longer survival
Outline: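 Mice bearing the transplanted tumor received compound or vehicle. Survival of the treated group was divided by that of the vehicle-treated control group to give the ratio.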

[1] = dose: 100.0 mg/kg/injection, schedule: Q01DX001 (ip), vehicle: saline with Tween-80
[2] = dose: 100.0 mg/kg/injection, schedule: Q01DX009 (ip), vehicle: saline with Tween-80
[3] = dose: 400.0 mg/kg/injection, schedule: Q01DX009 (ip), vehicle: saline with Tween-80
[4] = dose: 50.0 mg/kg/injection, schedule: Q01DX001 (ip), vehicle: saline
[5] = dose: 100.0 mg/kg/injection, schedule: Q01DX001 (ip), vehicle: saline
[6] = dose: 200.0 mg/kg/injection, schedule: Q01DX001 (ip), vehicle: saline
[7] = dose: 400.0 mg/kg/injection, schedule: Q01DX001 (ip), vehicle: saline
[8] = dose: 100.0 mg/kg/injection, schedule: Q04DX002 (ip), vehicle: Klucel (hydroxypropylcellulose) (HPC)
[9] = dose: 100.0 mg/kg/injection, schedule: Q04DX003 (ip), vehicle: Klucel (hydroxypropylcellulose) (HPC)
[10] = dose: 200.0 mg/kg/injection, schedule: Q04DX002 (ip), vehicle: Klucel (hydroxypropylcellulose) (HPC)
[11] = dose: 200.0 mg/kg/injection, schedule: Q04DX003 (ip), vehicle: Klucel (hydroxypropylcellulose) (HPC)
[12] = dose: 400.0 mg/kg/injection, schedule: Q04DX003 (ip), vehicle: Klucel (hydroxypropylcellulose) (HPC)
[13] = dose: 25.0 mg/kg/injection, schedule: Q01DX009 (ip), vehicle: saline
[14] = dose: 25.0 mg/kg/injection, schedule: Q04DX003 (ip), vehicle: saline
[15] = dose: 200.0 mg/kg/injection, schedule: Q04DX003 (ip), vehicle: saline with Tween-80
[16] = dose: 400.0 mg/kg/injection, schedule: Q04DX002 (ip), vehicle: Klucel (hydroxypropylcellulose) (HPC)

Measured: T/C

Oc1ccc2ccccc2c1/C=N/Nc1ccc2ccccc2n1
inactive: dose: 25.0 mg/kg/injection, schedule: Q01DX001 (ip), vehicle: saline with Tween-80 97 % of control | dose: 50.0 mg/kg/injection, schedule: Q01DX001 (ip), vehicle: saline with Tween-80 101 % of control | [1] 98 % of control

CCOC(=O)C(Br)CCCC(Br)C(=O)OCC (stereo not drawn)
inactive: [2] 90 % of control | [3] 89 % of control

Cc1cc(/C=N/N=c2\[nH][nH]/c(=N\N=C\c3cc(C)n(-c4ccccc4)c3C)c3ccccc23)c(C)n1-c1ccccc1
inactive: [4] 97 % of control | [5] 97 % of control | [6] 92 % of control | [7] 103 % of control

O=[N+]([O-])c1ccc(C(Cl)S(=O)(=O)c2ccccc2)cc1 (stereo not drawn)
inactive: [4] 100 % of control | dose: 50.0 mg/kg/injection, schedule: Q01DX009 (ip), vehicle: Klucel (hydroxypropylcellulose) (HPC) 103 % of control | dose: 50.0 mg/kg/injection, schedule: Q04DX003 (ip), vehicle: Klucel (hydroxypropylcellulose) (HPC) 99 % of control | [5] 108 % of control | dose: 100.0 mg/kg/injection, schedule: Q01DX009 (ip), vehicle: Klucel (hydroxypropylcellulose) (HPC) 92 % of control | [8] 93 % of control and 100 % of control | [9] 111 % of control | dose: 119.0 mg/kg/injection, schedule: Q01DX001 (ip), vehicle: Klucel (hydroxypropylcellulose) (HPC) 105 % of control | dose: 178.0 mg/kg/injection, schedule: Q01DX001 (ip), vehicle: Klucel (hydroxypropylcellulose) (HPC) 100 % of control | [6] 97 % of control | dose: 200.0 mg/kg/injection, schedule: Q01DX009 (ip), vehicle: Klucel (hydroxypropylcellulose) (HPC) 97 % of control | [10] 100 % of control | [11] 107 % of control | dose: 266.0 mg/kg/injection, schedule: Q01DX001 (ip), vehicle: Klucel (hydroxypropylcellulose) (HPC) 100 % of control | dose: 400.0 mg/kg/injection, schedule: Q01DX001 (ip), vehicle: Klucel (hydroxypropylcellulose) (HPC) 97 % of control | [7] 95 % of control | dose: 400.0 mg/kg/injection, schedule: Q01DX009 (ip), vehicle: Klucel (hydroxypropylcellulose) (HPC) 92 % of control | [12] 101 % of control | dose: 600.0 mg/kg/injection, schedule: Q01DX001 (ip), vehicle: Klucel (hydroxypropylcellulose) (HPC) 94 % of control | dose: 600.0 mg/kg/injection, schedule: Q04DX002 (ip), vehicle: Klucel (hydroxypropylcellulose) (HPC) 100 % of control

CCCCCCCCNC(C)C1=C(O)c2ccccc2C(=O)C1=O (stereo not drawn)
inactive: [1] 89 % of control | dose: 200.0 mg/kg/injection, schedule: Q01DX001 (ip), vehicle: saline with Tween-80 86 % of control | dose: 400.0 mg/kg/injection, schedule: Q01DX001 (ip), vehicle: saline with Tween-80 86 % of control

NN=O
inactive: [5] 97 % of control | [6] 101 % of control

COC(=O)c1ccccc1N1C(=O)C=CC1=O
inactive: dose: 6.25 mg/kg/injection, schedule: Q01DX009 (ip), vehicle: saline with Tween-80 97 % of control | dose: 12.5 mg/kg/injection, schedule: Q01DX009 (ip), vehicle: saline with Tween-80 98 % of control | dose: 25.0 mg/kg/injection, schedule: Q01DX009 (ip), vehicle: saline with Tween-80 103 % of control

CC(=O)Nc1ccc(S(=O)(=O)F)cc1[N+](=O)[O-]
inactive: dose: 100.0 mg/kg/injection, schedule: Q01DX009 (ip), vehicle: saline sonified 93 % of control | [9] 97 % of control | dose: 200.0 mg/kg/injection, schedule: Q01DX009 (ip), vehicle: saline sonified 114 % of control | [11] 93 % of control | dose: 400.0 mg/kg/injection, schedule: Q01DX009 (ip), vehicle: saline sonified 101 % of control | [12] 93 % of control

CN(CC(=O)O)C(=O)c1ccccc1
inactive: dose: 75.0 mg/kg/injection, schedule: Q01DX001 (ip), vehicle: saline 96 % of control | dose: 150.0 mg/kg/injection, schedule: Q01DX001 (ip), vehicle: saline 96 % of control

C[N+](C)(C)CCCC1C2CCC(C2)C1C[N+](C)(C)C (stereo not drawn)
inactive: dose: 12.0 mg/kg/injection, schedule: Q01DX009 (ip), vehicle: saline 103 % of control | dose: 12.5 mg/kg/injection, schedule: Q04DX003 (ip), vehicle: saline 106 % of control | [13] 104 % of control | [14] 98 % of control

CCCCCCCCCCCCCCCCNC(=S)N/N=C/C(C)=N/NC(=S)NCCCCCCCCCCCCCCCC
inactive: dose: 15.0 mg/kg/injection, schedule: Q01DX Z (ip), vehicle: carboxymethylcellulose (CMC) 101 % of control | dose: 30.0 mg/kg/injection, schedule: Q01DX Z (ip), vehicle: carboxymethylcellulose (CMC) 107 % of control | dose: 60.0 mg/kg/injection, schedule: Q01DX Z (ip), vehicle: carboxymethylcellulose (CMC) 100 % of control and 104 % of control | dose: 120.0 mg/kg/injection, schedule: Q01DX Z (ip), vehicle: carboxymethylcellulose (CMC) 95 % of control and 98 % of control | dose: 240.0 mg/kg/injection, schedule: Q01DX Z (ip), vehicle: carboxymethylcellulose (CMC) 100 % of control

Cc1cc(I)ccc1NC(=S)Nc1ccccc1F
inactive: dose: 100.0 mg/kg/injection, schedule: Q04DX003 (ip), vehicle: saline with Tween-80 93 % of control | [15] 105 % of control

CCCCC1C(=O)OC(C(C)C(O)CCCN=C(N)N)C(C)C=C(C)CCCCC(O)CC(O)CC(O)CC(O)CC(O)C(OC2OC(CO)C(O)C2O)C=C(C)C(O)CCCC(O)CCCC(O)CCC(C)C1O (stereo not drawn)
inactive: dose: 0.71 mg/kg/injection, schedule: Q01DX Z (ip), vehicle: carboxymethylcellulose (CMC) 96 % of control

CC(C(=O)N1c2ccccc2Sc2ccccc21)[N+]1(C)CCCC1 (stereo not drawn)
inactive: dose: 3.12 mg/kg/injection, schedule: Q01DX009 (ip), vehicle: saline 97 % of control | dose: 6.25 mg/kg/injection, schedule: Q01DX009 (ip), vehicle: saline 103 % of control | dose: 12.5 mg/kg/injection, schedule: Q01DX009 (ip), vehicle: saline 102 % of control | [13] 102 % of control | [14] 107 % of control | dose: 50.0 mg/kg/injection, schedule: Q01DX009 (ip), vehicle: saline 91 % of control | dose: 50.0 mg/kg/injection, schedule: Q04DX003 (ip), vehicle: saline 91 % of control

CCn1c2ccccc2c2cc(/C=C\[N+](=O)[O-])ccc21
inactive: [8] 91 % of control | [10] 94 % of control | [16] 97 % of control

O=C1C(=O)N(CNC(c2ccccc2)c2ccccc2)c2ccccc21
inactive: [15] 87 % of control | [3] 96 % of control

CCOC(=O)c1ccc(N=[N+]([O-])c2ccc(C(=O)OCC)cc2)cc1
inactive: [8] 96 % of control | [10] 96 % of control | [16] 100 % of control

O=C(Nc1c(Oc2ccc(Cl)cc2)ccc(Cl)c1S(=O)(=O)O)Nc1c(Oc2ccc(Cl)cc2)ccc(Cl)c1S(=O)(=O)O
inactive: dose: 100.0 mg/kg/injection, schedule: Q01DX001 (ip), vehicle: acetone 95 % of control | dose: 100.0 mg/kg/injection, schedule: Q04DX003 (ip), vehicle: saline 95 % of control | dose: 200.0 mg/kg/injection, schedule: Q04DX003 (ip), vehicle: saline 96 % of control | dose: 400.0 mg/kg/injection, schedule: Q01DX001 (ip), vehicle: acetone 92 % of control

O=c1ccc2c(c1)oc1cccc3c(=O)c4ccccc4c2c13
inactive: dose: 50.0 mg/kg/injection, schedule: Q01DX009 (ip), vehicle: saline with Tween-80 97 % of control | [2] 101 % of control
